Data: patent publication US10370366B2 (Flatley Discovery Lab, LLC, priority 2013, dated 2019)

Molecular target: T1, human F508del CFTR (Homo sapiens, UniProt P13569, DEL508-508)
T1 construct: expressed in transfected cells; host or cells: Fisher Rat Thyroid (FRT) cells
Experiment: CFTR-YFP High Throughput Assay
Type: cell-based
Conditions: FRT cells expressing human F508del CFTR and YFP; for Emax: EMax normalized to the positive control, read-out: % Efficacy
Procedure: Assays for Detecting and Measuring the Effect of Compounds on F508del-CFTR Channels CFTR-YFP High Throughput Assay-CFTR Corrector Protocol:
This protocol is designed to selectively screen small molecule compounds for F508del CFTR corrector activities in the HTS YFP (yellow fluorescent protein) flux assay. In this protocol, the cells are incubated with testing compounds for 24 hours, washed with PBS, stimulated with forskolin and a standard potentiator, and fluorescence in each plate well is measured kinetically read on a 384-well HTS plate reader, such as the Hamamatsu FDSS-6000.
YFP fluorescence intensity values are acquired at high speed before and after iodide buffer is injected to the assay cells. Iodide enters the cells via active CFTR channels in the plasma membrane, and quenches the YFP fluorescence. The rate of fluorescence quenching is proportionate to the total CFTR activity in the cell membrane. F508del CFTR correctors increase the number of CFTR molecules in the testing cell plasma membrane, and thereby accelerate YFP quenching.
This method was initially developed for bench top plate readers (Galietta et al., 2001), and was adapted to the HTS format (Sui et al. Assay Drug Dev. Technol. 2010).
Fisher Rat Thyroid (FRT) cells stably expressing both human F508del CFTR and a halide-sensitive yellow fluorescent protein (YFP-H148Q/I152L 25,22) (Galietta et al. Am. J. Physiol Cell Physiol 281(5), C1734, 2001) were cultured on plastic surface in Coon's modified Ham's F12 medium supplemented with FBS 10%, L-glutamine 2 mM, penicillin 100 U/ml, and streptomycin 100 µg/ml. G418 (0.75-1.0 mg/ml) and zeocin (3.2 ug/ml) were used for selection of FRT cells expressing F508del CFTR and YFP. For primary screening, FRT cells were plated into 384-well black wall, transparent bottom microtiter plates (Costar; Corning Inc.) at a cell density of 20,000-40,000 per well. Test compound was applied to the cells at varying concentrations ranging from 2 nM-40 μM in either a 2-fold or 3-fold dilution series. Cells were incubated in a cell culture incubator at 37° C. with 5% CO2 for 24-26 h. Assay plates were washed with DPBS media (Thermo, cat# SH30028.02) to remove unbound cells and compound. Stimulation media (25 μL) containing 20 μM Forskolin & 30 μM P3 [6-(Ethyl-phenyl-sulfonyl)-4-oxo-1,4-dihydro-quinoline-3-carboxylic acid 2-methoxy-benzylamide] in Hams F-12 coon's modified media was added to the plate wells and incubated at room temperature for 60-120 min. […] (10 mM HEPES, 1 mM MgCl2, 3 mM KCl, 1 mM CaCl2, 150 mM NaI) was then added and fluorescence quench curves (Excitation 500 nm/Emission 540 nm; exposure 136 ms) were immediately recorded on an FDSS-6000 plate reader (Hamamatsu). Quench rates were derived from least squares fitting of the data as described by Sui et al (2010).
CFTR-YFP High Throughput Assay-CFTR Potentiator Protocol:
This protocol is designed to selectively screen small molecule compounds for F508del CFTR potentiator activities in the HTS YFP flux assay. Such compounds act acutely to stimulate CFTR already expressed on the membrane surface. In this protocol, the cells are incubated at 27° C. for 24 hours to homogeneously boost F508del CFTR expression in the cell membrane (low temperature correction), washed with PBS, treated with test compound, and CFTR activity is stimulated with forskolin for 1-2 hr. Measurement of ion flux is initiated by addition of iodide-containing buffer, and YFP quenching is kinetically recorded using a 384-well HTS plate reader, such as the Hamamatsu FDSS-6000.
YFP fluorescence intensity values are acquired at high speed over a 1 min time course before and after iodide buffer is injected to the assay cells. Iodide enters the cells via active CFTR channels in the plasma membrane, and quenches the YFP fluorescence. The rate of fluorescence quenching is proportionate to total CFTR activity in the cell membrane. […]

T1 sequence (P13569 with tags, fused parts or gaps DEL508-508): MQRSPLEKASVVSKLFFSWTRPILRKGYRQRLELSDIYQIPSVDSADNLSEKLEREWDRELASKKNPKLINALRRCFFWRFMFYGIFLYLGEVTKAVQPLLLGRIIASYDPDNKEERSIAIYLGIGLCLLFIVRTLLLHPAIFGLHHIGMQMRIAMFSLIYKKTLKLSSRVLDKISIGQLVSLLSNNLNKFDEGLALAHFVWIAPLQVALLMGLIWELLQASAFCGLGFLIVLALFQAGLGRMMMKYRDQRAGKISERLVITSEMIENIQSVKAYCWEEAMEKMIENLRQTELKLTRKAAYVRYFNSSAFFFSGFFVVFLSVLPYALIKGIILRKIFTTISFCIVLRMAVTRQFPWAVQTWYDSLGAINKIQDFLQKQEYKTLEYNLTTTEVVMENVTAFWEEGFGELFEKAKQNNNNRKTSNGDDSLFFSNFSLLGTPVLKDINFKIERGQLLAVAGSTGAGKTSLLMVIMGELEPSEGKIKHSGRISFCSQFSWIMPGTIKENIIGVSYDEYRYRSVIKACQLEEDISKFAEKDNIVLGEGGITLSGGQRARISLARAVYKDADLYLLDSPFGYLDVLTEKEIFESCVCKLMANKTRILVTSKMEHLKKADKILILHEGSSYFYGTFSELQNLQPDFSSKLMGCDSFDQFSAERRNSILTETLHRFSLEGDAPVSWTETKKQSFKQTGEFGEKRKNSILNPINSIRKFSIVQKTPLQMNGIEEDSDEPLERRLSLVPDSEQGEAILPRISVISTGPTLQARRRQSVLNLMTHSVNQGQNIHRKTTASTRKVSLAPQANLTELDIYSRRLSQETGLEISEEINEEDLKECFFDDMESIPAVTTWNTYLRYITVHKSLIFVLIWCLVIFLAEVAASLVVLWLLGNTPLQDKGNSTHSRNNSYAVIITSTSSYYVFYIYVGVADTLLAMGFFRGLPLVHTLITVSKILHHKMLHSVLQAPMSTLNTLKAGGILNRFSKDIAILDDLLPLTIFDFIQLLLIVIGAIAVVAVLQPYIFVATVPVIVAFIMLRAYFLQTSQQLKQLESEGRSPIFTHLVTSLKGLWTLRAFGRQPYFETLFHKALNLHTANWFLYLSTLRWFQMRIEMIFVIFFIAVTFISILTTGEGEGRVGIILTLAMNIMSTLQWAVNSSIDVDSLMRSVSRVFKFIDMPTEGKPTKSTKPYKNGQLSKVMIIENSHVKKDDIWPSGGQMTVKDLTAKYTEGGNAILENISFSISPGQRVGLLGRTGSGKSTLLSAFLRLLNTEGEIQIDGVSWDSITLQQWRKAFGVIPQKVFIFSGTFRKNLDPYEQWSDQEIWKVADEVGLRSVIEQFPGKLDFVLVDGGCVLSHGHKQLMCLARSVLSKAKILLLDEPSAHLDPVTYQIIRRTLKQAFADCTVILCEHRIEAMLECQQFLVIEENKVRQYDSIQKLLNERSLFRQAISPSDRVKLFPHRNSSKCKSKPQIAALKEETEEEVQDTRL

An Emax of 10 to 30% was found for CCc1ccc(N(CC)C(=O)Cn2nc(-c3ccccc3)c3ccccc3c2=O)cc1 [Example 1, N-ethyl-N-(4-ethylphenyl)-2-(1-oxo-4-phenylphthalazin-2(1H)-yl)acetamide] in this work.
An Emax of 10 to 30% was found for CCc1ccc(N(CC)C(=O)Cn2nc(-c3ccc(O)cc3)c3ccccc3c2=O)cc1 [Example 2, N-ethyl-N-(4-ethylphenyl)-2-(4-(4-hydroxyphenyl)-1-oxophthalazin-2(1H)-yl)acetamide] in this work.
An Emax of 30 to 80% was found for CCc1ccc(N(CC)C(=O)Cn2nc(-c3cccnc3)c3ccccc3c2=O)cc1 [Example 3, N-ethyl-N-(4-ethylphenyl)-2-(1-oxo-4-(pyridin-3-yl)phthalazin-2(1H)-yl)acetamide] in this work.
An Emax of 30 to 80% was found for CCc1ccc(N(CC)C(=O)Cn2nc(-c3ccncc3)c3ccccc3c2=O)cc1 [Example 4, N-ethyl-N-(4-ethylphenyl)-2-(1-oxo-4-(pyridin-4-yl)phthalazin-2(1H)-yl)acetamide] in this work.
An Emax of 30 to 80% was found for CCc1ccc(N(CC)C(=O)Cn2nc(-c3cccc4ncccc34)c3ccccc3c2=O)cc1 [Example 5, N-ethyl-N-(4-ethylphenyl)-2-(1-oxo-4-(quinolin-5-yl)phthalazin-2(1H)-yl)acetamide] in this work.
An Emax of 30 to 80% was found for CCc1ccc(N(CC)C(=O)Cn2nc(-c3cccc4cnccc34)c3ccccc3c2=O)cc1 [Example 6, N-ethyl-N-(4-ethylphenyl)-2-(4-(isoquinolin-5-yl)-1-oxophthalazin-2(1H)-yl)acetamide] in this work.
An Emax of 30 to 80% and an EC50 greater than 20 µM were found for CCc1ccc(N(CC)C(=O)Cn2nc(-c3cncnc3)c3ccccc3c2=O)cc1 [Example 7, N-ethyl-N-(4-ethylphenyl)-2-(1-oxo-4-(pyrimidin-5-yl)phthalazin-2(1H)-yl)acetamide] in this work.
An Emax of 30 to 80% and an EC50 of less than 10 µM were found for CCc1ccc(N(CC)C(=O)Cn2nc(-c3cccc(N)c3)c3ccccc3c2=O)cc1 [Example 8, 2-(4-(3-aminophenyl)-1-oxophthalazin-2(1H)-yl)-N-ethyl-N-(4-ethylphenyl)acetamide] in this work.
An Emax of 10 to 30% and an EC50 of less than 10 µM were found for CCc1ccc(N(CC)C(=O)Cn2nc(-c3cccc(O)c3)c3ccccc3c2=O)cc1 [Example 9, N-ethyl-N-(4-ethylphenyl)-2-(4-(3-hydroxyphenyl)-1-oxophthalazin-2(1H)-yl)acetamide] in this work.
An Emax of 10 to 30% and an EC50 greater than 20 µM were found for CCc1ccc(N(CC)C(=O)Cn2nc(-c3cccc4c3OCO4)c3ccccc3c2=O)cc1 [Example 10, 2-(4-(benzo[d][1,3]dioxol-4-yl)-1-oxophthalazin-2(1H)-yl)-N-ethyl-N-(4-ethylphenyl)acetamide] in this work.
An Emax of 30 to 80% and an EC50 of 10 to 20 µM were found for CCc1ccc(N(CC)C(=O)Cn2nc(-c3cccc(C(N)=O)c3)c3ccccc3c2=O)cc1 [Example 11, 3-(3-(2-(ethyl(4-ethylphenyl)amino)-2-oxoethyl)-4-oxo-3,4-dihydrophthalazin-1-yl)benzamide] in this work.
An Emax of 30 to 80% and an EC50 greater than 20 µM were found for CCc1ccc(N(CC)C(=O)Cn2nc(-c3ccc(C(N)=O)cc3)c3ccccc3c2=O)cc1 [Example 12, 4-(3-(2-(ethyl(4-ethylphenyl)amino)-2-oxoethyl)-4-oxo-3,4-dihydrophthalazin-1-yl)benzamide] in this work.
An Emax of 30 to 80% and an EC50 of 10 to 20 µM were found for CCc1ccc(N(CC)C(=O)Cn2nc(-c3ccc(S(N)(=O)=O)cc3)c3ccccc3c2=O)cc1 [Example 13, N-ethyl-N-(4-ethylphenyl)-2-(1-oxo-4-(4-sulfamoylphenyl)phthalazin-2(1H)-yl)acetamide] in this work.
An Emax of 30 to 80% and an EC50 greater than 20 µM were found for CCc1ccc(N(CC)C(=O)Cn2nc(-c3ccc(C(=O)O)cc3)c3ccccc3c2=O)cc1 [Example 14, 4-(3-(2-(ethyl(4-ethylphenyl)amino)-2-oxoethyl)-4-oxo-3,4-dihydrophthalazin-1-yl)benzoic acid] in this work.
An Emax of 10 to 30% and an EC50 greater than 20 µM were found for CCc1ccc(N(CC)C(=O)Cn2nc(-c3ccc(C(=O)OC)cc3)c3ccccc3c2=O)cc1 [Example 15, methyl 4-(3-(2-(ethyl(4-ethylphenyl)amino)-2-oxoethyl)-4-oxo-3,4-dihydrophthalazin-1-yl)benzoate] in this work.
An Emax of 30 to 80% and an EC50 of less than 10 µM were found for CCc1ccc(N(CC)C(=O)Cn2nc(-c3ccc(S(C)(=O)=O)cc3)c3ccccc3c2=O)cc1 [Example 16, N-ethyl-N-(4-ethylphenyl)-2-(4-(4-(methylsulfanoyl)phenyl)-1-oxophthalazin-2(1H)-yl)acetamide] in this work.
An Emax of 30 to 80% and an EC50 of less than 10 µM were found for CCc1ccc(N(CC)C(=O)Cn2nc(-c3cccc(C#N)c3)c3ccccc3c2=O)cc1 [Example 17, 2-(4-(3-cyanophenyl)-1-oxophthalazin-2(1H)-yl)-N-ethyl-N-(4-ethylphenyl)acetamide] in this work.
An Emax greater than 80% and an EC50 of 10 to 20 µM were found for CCN(C(=O)Cn1nc(-c2ccc(S(N)(=O)=O)cc2)c2ccccc2c1=O)c1ccc2c(c1)OC(F)(F)O2 [Example 18, N-(2,2-difluorobenzo[d][1, 3]dioxol-5-yl)-N-ethyl-2-(1-oxo-4-(4-sulfamoylphenyl)phthalazin-2(1H)-yl)acetamide] in this work.
An Emax greater than 80% and an EC50 of 10 to 20 µM were found for CCN(C(=O)Cn1nc(-c2ccc(C(N)=O)cc2)c2ccccc2c1=O)c1ccc2c(c1)OC(F)(F)O2 [Example 19, 4-(3-(2-((2,2-difluorobenzo[d][1,3]dioxol-5-yl)(ethyl)amino)-2-oxoethyl)-4-oxo-3,4-dihydrophthalazin-1-yl)benzamide] in this work.
An Emax of 30 to 80% and an EC50 greater than 20 µM were found for CCN(C(=O)Cn1nc(-c2ccc(C(=O)O)cc2)c2ccccc2c1=O)c1ccc2c(c1)OC(F)(F)O2 [Example 20, 4-(3-(2-((2,2-difluorobenzo[d][1,3]dioxol-5-yl)(ethyl)amino)-2-oxoethyl)-4-oxo-3,4-dihydrophthalazin-1-yl)benzoic acid] in this work.
An Emax greater than 80% and an EC50 of less than 10 µM were found for CCN(C(=O)Cn1nc(-c2cccc(C#N)c2)c2ccccc2c1=O)c1ccc2c(c1)OC(F)(F)O2 [Example 21, 2-(4-(3-cyanophenyl)-1-oxophthalazin-2(1H)-yl)-N-(2,2-difluorobenzo[d][1,3]dioxol-5-yl)-N-ethylacetamide] in this work.
An Emax greater than 80% and an EC50 of less than 10 µM were found for CCN(C(=O)Cn1nc(-c2cccc(F)c2)c2ccccc2c1=O)c1ccc2c(c1)OC(F)(F)O2 [Example 23, N-(2,2-difluorobenzo[d][1, 3]dioxol-5-yl)-N-ethyl-2-(4-(3-fluorophenyl)-1-oxophthalazin-2(1H)-yl)acetamide] in this work.
An Emax of 30 to 80% and an EC50 of less than 10 µM were found for CCN(C(=O)Cn1nc(-c2cccnc2)c2ccccc2c1=O)c1ccc2c(c1)OC(F)(F)O2 [Example 24, N-(2,2-difluorobenzo[d][1, 3]dioxol-5-yl)-N-ethyl-2-(1-oxo-4-(pyridin-3-yl)phthalazin-2(1H)-yl)acetamide] in this work.
An Emax of 30 to 80% and an EC50 of 10 to 20 µM were found for CCc1ccc(N(CC)C(=O)Cn2nc(Cc3cccnc3)c3ccccc3c2=O)cc1 [Example 25, N-ethyl-N-(4-ethylphenyl)-2-(1-oxo-4-(pyridin-3-ylmethyl)phthalazin-2(1H)-yl)acetamide] in this work.
An Emax of 30 to 80% was found for CCN(C(=O)Cn1nc(Cc2cccnc2)c2ccccc2c1=O)c1ccc2c(c1)OC(F)(F)O2 [Example 26, N-(2,2-difluorobenzo[d][1,3]dioxol-5-yl)-N-ethyl-2-(1-oxo-4-(pyridin-3-ylmethyl)phthalazin-2(1H)-yl)acetamide] in this work.
An Emax of 30 to 80% was found for COc1ccc(N(C)C(=O)Cn2nc(Cc3cccnc3)c3ccccc3c2=O)cc1 [Example 27, N-(4-methoxyphenyl)-N-methyl-2-(1-oxo-4-(pyridin-3-ylmethyl)phthalazin-2(1H)-yl)acetamide] in this work.
